Experimental data taken from the Kinase Knowledgebase extract (Sharma et al. 2016).

Target: MAPK14 (UniProt Q16539)
Assay: Enzyme Assay

MAPK14, sequence (Q16539 whole entry, looked up): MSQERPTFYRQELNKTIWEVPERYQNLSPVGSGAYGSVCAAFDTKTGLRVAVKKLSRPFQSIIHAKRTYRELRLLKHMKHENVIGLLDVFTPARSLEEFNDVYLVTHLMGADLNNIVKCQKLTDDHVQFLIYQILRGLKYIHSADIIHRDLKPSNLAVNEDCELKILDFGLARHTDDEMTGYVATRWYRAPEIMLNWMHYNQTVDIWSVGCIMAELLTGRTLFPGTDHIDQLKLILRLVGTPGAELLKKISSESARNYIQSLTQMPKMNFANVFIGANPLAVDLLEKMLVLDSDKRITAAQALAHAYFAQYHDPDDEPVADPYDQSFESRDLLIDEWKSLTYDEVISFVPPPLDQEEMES

| IC50 [µM] | SMILES |
| --- | --- |
| < 2 | O=C(Nc1ccc(F)c(COc2cccnc2)c1)c1cc(F)cc(N2CCOCC2)c1 |
| < 2 | CC(C)(C)c1cc(NC(=O)Nc2ccc(F)c(COc3cnccn3)c2)n(-c2ccc(Cl)cc2)n1 |
| < 1000 | Nc1ncccc1OCc1ccc(Cl)cc1Cl |
| < 1000 | COc1cc(C(=O)Nc2ccc(F)c(COc3cnccn3)c2)nc(Cl)n1 |
| < 200 | Clc1cccc(Cl)c1COc1cnc(NC2CCOCC2)cn1 |
| < 200 | Cc1cc(C)cc(COc2cccnc2N)c1 |
| < 2 | Cc1nc2sccn2c1C(=O)Nc1ccc(F)c(COc2cnccn2)c1 |
| < 20 | CC(C)c1nnc(NC(=O)Nc2ccc(F)c(COc3cccnc3)c2)s1 |
| < 1000 | Nc1ccc(Cl)c(COc2cccnc2)c1 |
| < 1000 | O=C1c2ccccc2CN1c1ccc(F)c(COc2cccnc2)c1 |
| < 1000 | C[S+]([O-])c1nnc(NC(=O)Nc2ccc(F)c(COc3cnccn3)c2)s1 (stereo unspecified) |
| < 1000 | O=C1c2ccccc2C(=O)N1c1ccc(Cl)c(COc2cccnc2)c1 |
| < 20 | O=C(Nc1ccc(F)c(COc2cnccn2)c1)Nc1nc(-c2ccccc2)cs1 |
| < 200 | O=C1c2ccccc2C(O)N1c1ccc(Cl)c(COc2cccnc2)c1 (stereo unspecified) |
| < 2 | O=C(Nc1ccc(F)c(COc2cnccn2)c1)Nc1cc(C2CCCO2)nn1-c1ccc(F)cc1 (stereo unspecified) |
| < 1000 | NS(=O)(=O)CCNC(=O)c1cnc(OCc2c(Cl)cccc2Cl)cn1 |
| < 1000 | CCNC(=O)c1cnc(OCc2c(Cl)cccc2Cl)cn1 |
| < 200 | O=C(CC1CCOCC1)Nc1cnc(OCc2c(Cl)cccc2Cl)cn1 |
| < 20 | O=C(Nc1ccc(F)c(COc2cnccn2)c1)c1ccc(=O)n(Cc2ccccc2)c1 |
| < 200 | O=C(Nc1ccc(Cl)c(COc2cccnc2)c1)c1cccc(F)c1 |
| < 20 | O=C(Cn1ccnc1)Nc1cnc(OCc2c(Cl)cccc2Cl)cn1 |
| < 1000 | c1cncc(OCc2cccc3ccccc23)c1 |

| IC50 [µM] | SMILES |
| --- | --- |
| < 200 | Clc1cccc(Cl)c1COc1cnc(N2CCOCC2)cn1 |
| < 2 | CC(C)(C)c1cc(NC(=O)Nc2ccc(F)c(COc3cnccn3)c2)n(-c2ccc(Cl)nn2)n1 |
| < 200 | O=C(Nc1ccccc1)Oc1cccc(COc2cnccn2)c1 |
| < 200 | CCN(CC)C(=O)Nc1cnc(OCc2c(Cl)cccc2Cl)cn1 |
| < 2 | O=C(Nc1ccc(Cl)c(COc2cccnc2)c1)c1ccnc(N2CCOCC2)c1 |
| < 2 | O=C(Nc1ccc(F)c(COc2cnccn2)c1)Nc1nnc(CC2CC2)s1 |
| < 200 | O=C(Nc1ccc(F)c(COc2cccnc2)c1)c1cccc(F)c1 |
| < 1000 | c1ccc(CNc2cccc(COc3cnccn3)c2)cc1 |
| < 1000 | Nc1cnc(OCc2ccccc2)cn1 |
| < 200 | O=C(Nc1ccc(F)c(COc2cccnc2)c1)c1ccccc1 |
| < 1000 | Nc1ncccc1OCc1cccc(Cl)c1 |
| < 200 | CC(C)(C)c1ccc2[nH]cc(CC(=O)Nc3ccc(F)c(COc4cnccn4)c3)c2c1 |
| < 20 | O=C(Nc1ccc(Cl)c(COc2cccnc2)c1)c1cccc(C(F)(F)F)c1 |
| < 1000 | Clc1cccc(Cl)c1COc1ccc(N2CCOCC2)nc1 |
| < 2 | O=C(Nc1ccc(F)c(COc2cnccn2)c1)Nc1nnc(Cc2ccccc2)s1 |
| < 20 | O=C(Nc1ccccc1)Nc1ccc(Cl)c(COc2cccnc2)c1 |
| < 200 | Nc1ncccc1OCc1ccc(Cl)c(F)c1 |
| < 20 | O=C(Nc1ccc(F)c(COc2cnccn2)c1)Oc1cccc(C(F)(F)F)c1 |
| < 200 | O=C(Nc1ccc(F)c(COc2cnccn2)c1)Nc1ncc(-c2ccc(Cl)cc2)s1 |
| < 200 | O=C(Nc1ccc(F)c(COc2cnccn2)c1)c1ccc(-c2ccccc2)cc1 |
| < 2 | O=C(Nc1ccc(F)c(COc2cnccn2)c1)c1cc(N2CCOCC2)nc(N2CCOCC2)n1 |
| < 1000 | Cc1cc(C)c2nc(NC(=O)Nc3ccc(F)c(COc4cnccn4)c3)sc2c1 |

| IC50 [µM] | SMILES |
| --- | --- |
| < 20 | CC(C)(C)c1cc(NC(=O)Nc2ccc(Cl)c(COc3cnccn3)c2)[nH]n1 |
| < 1000 | Nc1ccc(Cl)c(COc2cnccn2)c1 |
| < 1000 | Nc1nccnc1OCc1c(Cl)cccc1Cl |
| < 2 | O=C(Nc1ccc(F)c(COc2cnccn2)c1)Nc1nnc(C2CCCO2)s1 (stereo unspecified) |
| < 2 | O=C(Nc1ccc(F)c(COc2cnccn2)c1)c1cccc(Oc2ccccc2)c1 |
| < 2 | O=C(Nc1cnc(OCc2c(Cl)cccc2Cl)cn1)N1CCOCC1 |
| < 20 | O=C(Nc1ccc(F)c(COc2cnccn2)c1)Nc1n[nH]cc1-c1ccccc1 |
| < 20 | CC(C)(C)c1cc(C(=O)Nc2ccc(F)c(COc3cnccn3)c2)n(Cc2ccc(F)cc2)n1 |
| < 200 | O=C(CN1CCOCC1)Nc1cnc(OCc2c(Cl)cccc2Cl)cn1 |
| < 1000 | Nc1ncccc1OCc1cccc(C(=O)NCc2cccc3ccccc23)c1 |
| < 2 | CC(C)(C)c1cccc(C(=O)Nc2ccc(Cl)c(COc3cccnc3)c2)c1 |
| < 1000 | Nc1ncccc1OCc1ccc(F)cc1F |
| < 200 | Nc1cnc(OCc2c(Cl)cccc2Cl)cn1 |
| < 1000 | CC(C)(C)OC(=O)Nc1ccc(Cl)c(COc2cnccn2)c1 |
| < 1000 | Nc1ncc(OCc2cccc3ccccc23)nc1Br |
| < 20 | CC(C)c1nnc(NC(=O)Nc2ccc(F)c(COc3cnccn3)c2)s1 |
| < 1000 | Clc1cnc(OCc2c(Cl)cccc2Cl)cn1 |
| < 200 | O=C(Nc1ccc(F)c(COc2cnccn2)c1)Nc1nnc(-c2ccccc2)s1 |
| < 1000 | Nc1ncccc1OCc1ccc(F)cc1Cl |
| < 200 | CC(C)(C)C(=O)Nc1cnc(OCc2c(Cl)cccc2Cl)cn1 |
| < 100 | Cc1ccc2ccccc2c1COc1cccnc1N |
| < 200 | Clc1cccc(Cl)c1COc1cnccn1 |

| IC50 [µM] | SMILES |
| --- | --- |
| < 20 | CC(C)(C)c1cc(C(=O)Nc2ccc(F)c(COc3cnccn3)c2)n(Cc2ccccc2)n1 |
| < 200 | Nc1ncccc1OCc1cccc(-c2ccccc2)c1 |
| < 2 | CC(CO)(CO)NC(=O)c1cnc(OCc2c(Cl)cccc2Cl)cn1 |
| < 200 | C=CS(=O)(=O)Nc1cnc(OCc2c(Cl)cccc2Cl)cn1 |
| < 2 | O=C(Nc1ccc(F)c(COc2cnccn2)c1)Nc1cc(-c2ccc(Cl)cc2)nn1-c1ccc(F)cc1 |
| < 20 | Clc1cccc(Cl)c1COc1cnc(NCc2ccccc2)cn1 |
| < 1000 | Nc1ncccc1OCc1cc2c(cc1Cl)OCO2 |
| < 1000 | Nc1ncccc1OCc1c(F)cccc1Cl |
| < 2 | O=C(Nc1ccc(Cl)c(COc2cnccn2)c1)c1ccnc(N2CCOCC2)c1 |
| < 2 | CC(C)(C)c1cc(NC(=O)Nc2ccc(Cl)c(COc3cccnc3)c2)n(-c2ccccc2)n1 |
| < 1000 | Nc1ncccc1OCc1cccc2ccoc12 |
| < 20 | CC(C)(C)n1nc(-c2ccccc2)cc1NC(=O)Nc1ccc(F)c(COc2cnccn2)c1 |
| < 1000 | Nc1ncccc1OCc1ccccc1CS(=O)(=O)c1ccccc1 |
| < 10 | Nc1ncccc1OCc1ccccc1-c1ccccc1 |
| < 200 | OCCNc1ccc(OCc2ccccc2)cn1 |
| < 200 | CC1(C(=O)Nc2cnc(OCc3c(Cl)cccc3Cl)cn2)CC1 |
| < 20 | O=C(Nc1ccc(Cl)c(COc2cccnc2)c1)c1cccc(Cl)c1 |
| < 20 | CC(Nc1cnc(OCc2c(Cl)cccc2Cl)cn1)c1ccccc1 (stereo unspecified) |
| < 20 | Nc1ncccc1OCc1cc(NC(=O)c2ccccc2)ccc1Cl |
| < 2 | O=C(Nc1ccc(F)c(COc2cnccn2)c1)Nc1cc(C2CCOCC2)nn1-c1ccc(F)cc1 |
